{"source": "the supplement of paper PMC10307832", "assay_in_all_cases": "relative viability (nuclei count vs DMSO), 5 days (fraction); higher = more cells survive", "key": {"NCI-H2228": {"tested_on": "NCI-H2228", "how_it_was_run": "(§1)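 After 5 days of treatment, lung cancer cells in 1536-well plates were fixed and stained in a single step (final 0.05% Triton X-100, 1% formaldehyde, 1 ug/ml Hoechst) and their nuclei counted on 4× images. Treatment had been applied by pin tool the day after seeding as one drug alone or as a fixed anchor-drug dose with five library-drug doses (not always all listed) in √10 steps. Relative viability is the nuclei count of treated wells divided by that of vehicle wells, and values are medians of duplicate plates.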"}, "A-427": {"tested_on": "A-427", "how_it_was_run": "as §1"}, "SW 1573": {"tested_on": "SW 1573", "how_it_was_run": "as §1"}, "NCI-H2170": {"tested_on": "NCI-H2170", "how_it_was_run": "as §1"}, "NCI-H596": {"tested_on": "NCI-H596", "how_it_was_run": "as §1"}, "PC-3 [JPC-3]": {"tested_on": "PC-3 [JPC-3]", "how_it_was_run": "as §1"}, "LXF-289": {"tested_on": "LXF-289", "how_it_was_run": "as §1"}, "NCI-H1792": {"tested_on": "NCI-H1792", "how_it_was_run": "as §1"}, "HARA": {"tested_on": "HARA", "how_it_was_run": "as §1"}, "NCI-H1993": {"tested_on": "NCI-H1993", "how_it_was_run": "as §1"}}, "data": [{"smiles": "O=c1cc(-c2cccc3c2Sc2ccccc2S3)oc(N2CCOCC2)c1", "note": "+ CS(=O)(=O)N1CCN(Cc2cc3nc(-c4cccc5[nH]ncc45)nc(N4CCOCC4)c3s2)CC1 [Pictilisib] (partner 1 µM)", "values": [{"measurement": "relative viability", "setting": "NCI-H2228; first compound 0.253 µM", "result": 0.424}, {"measurement": "relative viability", "setting": "NCI-H2228; first compound 0.8 µM", "result": 0.296}, {"measurement": "relative viability", "setting": "NCI-H2228; first compound 2.53 µM", "result": 0.484}, {"measurement": "relative viability", "setting": "NCI-H2228; first compound 8 µM", "result": 0.378}, {"measurement": "relative viability", "setting": "A-427; first compound 0.08 µM", "result": 0.818}, {"measurement": "relative viability", "setting": "A-427; first compound 0.253 µM", "result": 0.678}, {"measurement": "relative viability", "setting": "A-427; first compound 0.8 µM", "result": 0.634}, {"measurement": "relative viability", "setting": "A-427; first compound 2.53 µM", "result": 0.623}, {"measurement": "relative viability", "setting": "A-427; first compound 8 µM", "result": 0.973}, {"measurement": "relative viability", "setting": "SW 1573; first compound 0.08 µM", "result": 0.539}, {"measurement": "relative viability", "setting": "SW 1573; first compound 0.253 µM", "result": 0.554}, {"measurement": "relative viability", "setting": "SW 1573; first compound 0.8 µM", "result": 0.586}, {"measurement": "relative viability", "setting": "SW 1573; first compound 2.53 µM", "result": 0.556}, {"measurement": "relative viability", "setting": "SW 1573; first compound 8 µM", "result": 0.597}, {"measurement": "relative viability", "setting": "NCI-H2170; first compound 0.08 µM", "result": 0.31}, {"measurement": "relative viability", "setting": "NCI-H2170; first compound 0.253 µM", "result": 0.342}, {"measurement": "relative viability", "setting": "NCI-H2170; first compound 0.8 µM", "result": 0.312}, {"measurement": "relative viability", "setting": "NCI-H2170; first compound 2.53 µM", "result": 0.287}, {"measurement": "relative viability", "setting": "NCI-H2170; first compound 8 µM", "result": 0.275}, {"measurement": "relative viability", "setting": "NCI-H596; first compound 0.08 µM", "result": 0.34}, {"measurement": "relative viability", "setting": "NCI-H596; first compound 0.253 µM", "result": 0.419}, {"measurement": "relative viability", "setting": "NCI-H596; first compound 0.8 µM", "result": 0.357}, {"measurement": "relative viability", "setting": "NCI-H596; first compound 2.53 µM", "result": 0.371}, {"measurement": "relative viability", "setting": "NCI-H596; first compound 8 µM", "result": 0.403}, {"measurement": "relative viability", "setting": "PC-3 [JPC-3]; first compound 0.08 µM", "result": 0.694}, {"measurement": "relative viability", "setting": "PC-3 [JPC-3]; first compound 0.253 µM", "result": 0.761}, {"measurement": "relative viability", "setting": "PC-3 [JPC-3]; first compound 0.8 µM", "result": 0.644}, {"measurement": "relative viability", "setting": "PC-3 [JPC-3]; first compound 2.53 µM", "result": 0.662}, {"measurement": "relative viability", "setting": "PC-3 [JPC-3]; first compound 8 µM", "result": 0.863}, {"measurement": "relative viability", "setting": "LXF-289; first compound 0.08 µM", "result": 0.777}, {"measurement": "relative viability", "setting": "LXF-289; first compound 0.253 µM", "result": 0.791}, {"measurement": "relative viability", "setting": "LXF-289; first compound 0.8 µM", "result": 0.896}, {"measurement": "relative viability", "setting": "LXF-289; first compound 2.53 µM", "result": 0.747}, {"measurement": "relative viability", "setting": "LXF-289; first compound 8 µM", "result": 0.849}, {"measurement": "relative viability", "setting": "NCI-H1792; first compound 0.253 µM", "result": 0.257}, {"measurement": "relative viability", "setting": "NCI-H1792; first compound 0.8 µM", "result": 0.223}, {"measurement": "relative viability", "setting": "NCI-H1792; first compound 2.53 µM", "result": 0.277}, {"measurement": "relative viability", "setting": "NCI-H1792; first compound 8 µM", "result": 0.238}, {"measurement": "relative viability", "setting": "HARA; first compound 0.08 µM", "result": 0.368}, {"measurement": "relative viability", "setting": "HARA; first compound 0.253 µM", "result": 0.378}, {"measurement": "relative viability", "setting": "HARA; first compound 0.8 µM", "result": 0.419}, {"measurement": "relative viability", "setting": "HARA; first compound 2.53 µM", "result": 0.384}, {"measurement": "relative viability", "setting": "HARA; first compound 8 µM", "result": 0.627}, {"measurement": "relative viability", "setting": "NCI-H1993; first compound 0.08 µM", "result": 0.942}, {"measurement": "relative viability", "setting": "NCI-H1993; first compound 0.253 µM", "result": 0.759}, {"measurement": "relative viability", "setting": "NCI-H1993; first compound 0.8 µM", "result": 0.894}, {"measurement": "relative viability", "setting": "NCI-H1993; first compound 2.53 µM", "result": 0.846}, {"measurement": "relative viability", "setting": "NCI-H1993; first compound 8 µM", "result": 0.805}]}]}
